The test system of series [1] is Tobacco Budworm 1st Instar. As to the kind of experiment: Tobacco budworm initial test, treated eggs / newly hatched (1st instar) larvae on treated cotton leaves. Format: in vivo, Heliothis virescens (Fabricus). The method, then: Test formulations and procedures used for evaluation are as follows:
A. 100 mg of the test material is weighed, placed in a funnel over a 113 g narrow-mouth bottle, rinsed into the bottle with a 35 mL scoop of acetone, followed by a 35 mL scoop of water and another 35 mL scoop of acetone to yield 1000 ppm in 65% acetone. If the material is not soluble, it is broken up with a glass rod and used as a suspension.
B. This stock solution ("A") is used to make 300 ppm solutions or suspensions by pipetting 30 mL of "A" into a bottle containing 70 mL of 50% acetone to yield 300 ppm. Further dilutions in 50% acetone are made as required.
C. Tests requiring 10 ppm acetone solutions: 1 mL of "A" is pipetted into 99 mL of acetone to yield 10 ppm. Additional dilutions are made using 50% acetone as required.
Tobacco Budworm--Heliothis virescens (Fabricus)
A cotton plant with two true leaves expanded is dipped for three seconds with agitation in 300 ppm solution. A 1.27 to 1.91 cm square of cheesecloth with about 50 to 100 budworm eggs 0-24 hours old is also dipped in the test solution and placed on a leaf of the cotton plant, all being placed in the hood to dry. The leaf with the treated budworm eggs is removed from the plant and placed in a 226 g Dixie cup with a wet 5 cm piece of dental wick and covered with a lid. The other leaf is placed in a similar cup with a wick and a piece of cheesecloth infested with 50-100 newly hatched larvae is added before covering the cup with a lid. After three days at 80° F., 50% relative humidity, observations of egg hatch are made, as well as kill of newly hatched larvae, any inhibition of feeding, or interference of any sort with normal development.

Series [2] concerns Tobacco Budworm 3rd Instar. As to the kind of experiment: Tobacco budworm secondary test, third-instar larvae on treated cotton cotyledons. It is filed as in vivo, Heliothis virescens (Fabricus).
The subject of a further series is Southern Armyworm. As to the kind of experiment: Southern armyworm test, third-instar larvae on treated Sieva lima bean leaves. It is filed as in vivo, Spodoptera eridania (Cramer). Particulars: for Mortality Rating Southern Armyworm: third-instar larvae; for LC50: Spodoptera eridania, read-out: LC50 Southern Armyworm. In a few lines:
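Sieva lima bean plants, primary leaves expanded to 1.91 cm, were dipped with agitation for three seconds in test material dissolved in 65% acetone, with further dilutions in acetone, then air-dried in a hood. A treated leaf was placed in a 9 cm petri dish on moist filter paper with 10 third-instar Spodoptera eridania larvae about 1 cm long. Dishes were covered and kept at 80° F. and 50% r.h. Mortality and feeding were assessed after two days.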

In brackets after ≈: the same amount, converted by molar mass. Counter-ions that a name gives are not always drawn.

What is called LC50 is the concentration that kills 50% of the test population.

As to `CN(C)C(=O)N(N=Cc1ccc(Br)cc1)C(=N)NN=Cc1ccc(Br)cc1` [Br / Br / CH3 / CH3], the “Mortality Rating Tobacco Budworm 1st Instar” value in series [1] (300 ppm) is recorded as 0 (No effect). In addition, the “Mortality Rating Tobacco Budworm 3rd Instar” value in series [2] (100 ppm) is recorded as 0 (No effect); in series [2] (1000 ppm), 2 (26-35%). The “Mortality Rating Southern Armyworm” value is on record as 0 (No effect) with Southern Armyworm (10 ppm), 9 (100%) in the series on Southern Armyworm (100 ppm) and 9 (100%) in the series with Southern Armyworm (1000 ppm).
Regarding `N=C(NN=Cc1ccc(Br)cc1)NN=Cc1ccc(Br)cc1` [Br / HNO3], in series [1] (300 ppm), the “Mortality Rating Tobacco Budworm 1st Instar” value was 0 (No effect). For the same molecule, the “Mortality Rating Southern Armyworm” value in the series with Southern Armyworm (100 ppm) is recorded as 5 (56-65%); in the series on Southern Armyworm (1000 ppm), 9 (100%).
On to `N=C(NN=Cc1ccc(C(F)(F)F)cc1)NN=Cc1ccc(C(F)(F)F)cc1` [CF3 / B, 1,3-bis{[p-(trifluoromethyl)benzylidene]amino}guanidine], for which the “Mortality Rating Tobacco Budworm 1st Instar” value in series [1] (100 ppm) is 0 (No effect); in series [1] (300 ppm), 6 (66-75%). Besides, the “Mortality Rating Tobacco Budworm 3rd Instar” value was 0 (No effect) in series [2] (100 ppm) and 8 (86-99%) in series [2] (1000 ppm). In addition, the “Mortality Rating Southern Armyworm” value with Southern Armyworm (10 ppm) was 0 (No effect); with Southern Armyworm (100 ppm), 9 (100%); in the series on Southern Armyworm (1000 ppm) it was 9 (100%).
Regarding `N=C(NN=Cc1ccc(Br)cc1)NN=Cc1ccc(C(F)(F)F)cc1` [CF3 / Br / HCl], the “Mortality Rating Tobacco Budworm 1st Instar” value in series [1] (10 ppm) is on record as 0 (No effect); in series [1] (100 ppm) it was 0 (No effect); in series [1] (300 ppm) it was 9 (100%). Also, the “reduced feeding (R) Tobacco Budworm 1st Instar” value in series [1] (100 ppm) is reported as “R”. Besides, the “Mortality Rating Tobacco Budworm 3rd Instar” value in series [2] (10 ppm), in series [2] (100 ppm) and in series [2] (1000 ppm) was 0 (No effect) each time. For the same molecule, the “reduced feeding (R) Tobacco Budworm 3rd Instar” value in series [2] (100 ppm) and in series [2] (1000 ppm) was “R” each time. Besides, in the series on Southern Armyworm (1000 ppm), the “Mortality Rating Southern Armyworm” value is on record as 9 (100%).
`CC(C)OC(=O)N(N=Cc1ccc(C(F)(F)F)cc1)C(=N)NN=Cc1ccc(C(F)(F)F)cc1` [CF3 / CF3 / -i-C3 H7]: in series [1] (300 ppm), the “Mortality Rating Tobacco Budworm 1st Instar” value is reported as 0 (No effect). Further, the “Mortality Rating Tobacco Budworm 3rd Instar” value in series [2] (100 ppm) was 0 (No effect); in series [2] (1000 ppm), 3 (36-45%). Moreover, the “reduced feeding (R) Tobacco Budworm 3rd Instar” value in series [2] (100 ppm) and in series [2] (1000 ppm) was “R” throughout. For the same molecule, the “Mortality Rating Southern Armyworm” value in the series with Southern Armyworm (10 ppm), with Southern Armyworm (100 ppm) and in the series with Southern Armyworm (1000 ppm) was 9 (100%) in each case.
As to `CC(C)COC(=O)N(N=Cc1ccc(C(F)(F)F)cc1)C(=N)NN=Cc1ccc(C(F)(F)F)cc1` [CF3 / CF3 / -i-C4 H9], in series [1] (300 ppm), the “Mortality Rating Tobacco Budworm 1st Instar” value is listed as 0 (No effect). Further, the “Mortality Rating Tobacco Budworm 3rd Instar” value in series [2] (1000 ppm) is reported as 0 (No effect). For the same molecule, the “Mortality Rating Southern Armyworm” value in the series with Southern Armyworm (100 ppm) is listed as 0 (No effect); with Southern Armyworm (1000 ppm) it was 9 (100%).
For the molecule `CCN(CC)C(=O)N(N=Cc1ccc(C(F)(F)F)cc1)C(=N)NN=Cc1ccc(C(F)(F)F)cc1` [CF3 / CF3 / C2 H5 / C2 H5], the “Mortality Rating Tobacco Budworm 1st Instar” value in series [1] (300 ppm) is recorded as 0 (No effect). Also, in series [2] (1000 ppm), the “Mortality Rating Tobacco Budworm 3rd Instar” value is 4 (46-55%). The “Mortality Rating Southern Armyworm” value in the series with Southern Armyworm (10 ppm) was 7 (76-85%); with Southern Armyworm (100 ppm), 9 (100%); in the series on Southern Armyworm (1000 ppm), 9 (100%). Further, the LC50 in the series on Southern Armyworm is 8 µg/mL (≈ 16 µM). Further, the “LC50 Southern Armyworm” value in the series with Southern Armyworm (southern armyworm, in vivo) is recorded as 12 ppm.
For the molecule `CCNC(=O)N(N=Cc1ccc(C(F)(F)F)cc1)C(=N)NN=Cc1ccc(C(F)(F)F)cc1` [CF3 / CF3 / C2 H5 / H], the “Mortality Rating Tobacco Budworm 1st Instar” value in series [1] (300 ppm) is reported as 0 (No effect). Moreover, the “Mortality Rating Tobacco Budworm 3rd Instar” value in series [2] (1000 ppm) is 0 (No effect). Also, the “Mortality Rating Southern Armyworm” value in the series on Southern Armyworm (100 ppm) is listed as 0 (No effect); in the series with Southern Armyworm (1000 ppm) it was 9 (100%).
As for `CNC(=O)N(N=Cc1ccc(C(F)(F)F)cc1)C(=N)NN=Cc1ccc(C(F)(F)F)cc1` [CF3 / CF3 / CH3 / H], the “Mortality Rating Tobacco Budworm 1st Instar” value is on record as 0 (No effect) in series [1] (100 ppm) and 8 (86-99%) in series [1] (300 ppm). In series [2] (1000 ppm), the “Mortality Rating Tobacco Budworm 3rd Instar” value is 6 (66-75%). Besides, the “Mortality Rating Southern Armyworm” value in the series with Southern Armyworm (10 ppm) is given as 1 (11-25%); with Southern Armyworm (100 ppm) it was 9 (100%); in the series on Southern Armyworm (1000 ppm) it was 9 (100%). In addition, the LC50 in the series on Southern Armyworm was found to be 5 µg/mL (≈ 10.9 µM).
For `N=C(NN=Cc1ccc(C(F)(F)F)cc1)N(N=Cc1ccc(C(F)(F)F)cc1)C(=O)OCc1ccccc1` [CF3 / CF3 / drawing 59], in series [1] (300 ppm), the “Mortality Rating Tobacco Budworm 1st Instar” value is 0 (No effect). Moreover, in series [2] (1000 ppm), the “Mortality Rating Tobacco Budworm 3rd Instar” value is 0 (No effect). Further, the figures for the “Mortality Rating Southern Armyworm” value in the series on Southern Armyworm (100 ppm) and with Southern Armyworm (1000 ppm) were 0 (No effect) and 9 (100%), respectively.
Consider `N=C(NN=Cc1ccc(OC(F)(F)F)cc1)NN=Cc1ccc(OC(F)(F)F)cc1` [CF3 O / HCl], for which the “Mortality Rating Tobacco Budworm 1st Instar” value in series [1] (300 ppm) is 9 (100%). In addition, the “Mortality Rating Southern Armyworm” value in the series with Southern Armyworm (10 ppm) is listed as 0 (No effect); in the series with Southern Armyworm (100 ppm) it was 9 (100%); in the series with Southern Armyworm (1000 ppm), 9 (100%).
`CC1(C)Oc2ccc(C=NNC(=N)NN=Cc3ccc4c(c3)OC(C)(C)O4)cc2O1` [drawing 45 / S]: the “Mortality Rating Tobacco Budworm 3rd Instar” value in series [2] (100 ppm) and in series [2] (1000 ppm) was 0 (No effect) throughout. Besides, the “reduced feeding (R) Tobacco Budworm 3rd Instar” value in series [2] (1000 ppm) is listed as “R”. Moreover, the “Mortality Rating Southern Armyworm” value in the series with Southern Armyworm (10 ppm) was 6 (66-75%); with Southern Armyworm (1000 ppm) it was 9 (100%).
`N=C(NN=Cc1ccc2c(c1)OC(F)(F)O2)NN=Cc1ccc2c(c1)OC(F)(F)O2` [drawing 46 / S]: the “Mortality Rating Tobacco Budworm 3rd Instar” value in series [2] (100 ppm) and in series [2] (1000 ppm) was 0 (No effect) in each case. Moreover, the “reduced feeding (R) Tobacco Budworm 3rd Instar” value in series [2] (100 ppm) and in series [2] (1000 ppm) was “R” each time. The “Mortality Rating Southern Armyworm” value in the series on Southern Armyworm (10 ppm) is 4 (46-55%); in the series with Southern Armyworm (100 ppm), 0 (No effect); with Southern Armyworm (1000 ppm), 9 (100%).
For `N=C(NN=Cc1ccc2c(c1)OC(F)C(F)(F)O2)NN=Cc1ccc2c(c1)OC(F)C(F)(F)O2` (centres unmarked) [drawing 47 / B], the “Mortality Rating Tobacco Budworm 3rd Instar” value in series [2] (100 ppm) and in series [2] (1000 ppm) was 0 (No effect) throughout. In addition, the “reduced feeding (R) Tobacco Budworm 3rd Instar” value in series [2] (100 ppm) and in series [2] (1000 ppm) was “R” each time. Further, the figures for the “Mortality Rating Southern Armyworm” value with Southern Armyworm (10 ppm) and in the series on Southern Armyworm (1000 ppm) were 0 (No effect) and 9 (100%), respectively.
As for `N=C(NN=Cc1ccc2c(c1)OC(F)C(F)(F)O2)NN=Cc1ccc2c(c1)OC(F)C(F)(F)O2` (centres unmarked) [drawing 48 / S], in series [2] (1000 ppm), the “Mortality Rating Tobacco Budworm 3rd Instar” value is recorded as 0 (No effect) and the “reduced feeding (R) Tobacco Budworm 3rd Instar” value is on record as “R”. In the series on Southern Armyworm (100 ppm), the “Mortality Rating Southern Armyworm” value was 0 (No effect). Moreover, the “Mortality Rating Southern Armyworm” value with Southern Armyworm (1000 ppm) is listed as 9 (100%).
For the molecule `CC(C)OC(=O)N(N=Cc1ccc(OC(F)(F)C(F)Cl)cc1)C(=N)NN=Cc1ccc(OC(F)(F)C(F)Cl)cc1` (centres unmarked) [drawing 50 / drawing 51 / -i-C3 H7], the “Mortality Rating Tobacco Budworm 3rd Instar” value in series [2] (1000 ppm) is 0 (No effect). Also, the “reduced feeding (R) Tobacco Budworm 3rd Instar” value in series [2] (1000 ppm) was “R”. Besides, the “Mortality Rating Southern Armyworm” value in the series on Southern Armyworm (10 ppm) is 0 (No effect); in the series on Southern Armyworm (100 ppm), 9 (100%); in the series with Southern Armyworm (1000 ppm), 9 (100%).
Regarding `CC(C)OC(=O)N(N=Cc1ccc2c(c1)OC(F)C(F)(F)O2)C(=N)NN=Cc1ccc2c(c1)OC(F)C(F)(F)O2` (centres unmarked) [drawing 52 / drawing 53 / -i-C3 H7], the “Mortality Rating Tobacco Budworm 3rd Instar” value in series [2] (100 ppm) and in series [2] (1000 ppm) was 0 (No effect) each time. Also, in series [2] (1000 ppm), the “reduced feeding (R) Tobacco Budworm 3rd Instar” value was “R”. Also, the figures for the “Mortality Rating Southern Armyworm” value with Southern Armyworm (10 ppm), with Southern Armyworm (100 ppm) and with Southern Armyworm (1000 ppm) were 0 (No effect), 5 (56-65%) and 8 (86-99%), respectively.
Regarding `N=C(NN=Cc1ccc(OC(F)(F)C(F)Cl)cc1)N(N=Cc1ccc(OC(F)(F)C(F)Cl)cc1)C(=O)OCCCl` (centres unmarked) [drawing 57 / drawing 58 / ClCH2 CH2], in series [2] (1000 ppm), the “Mortality Rating Tobacco Budworm 3rd Instar” value is 0 (No effect) and the “reduced feeding (R) Tobacco Budworm 3rd Instar” value is “R”. Moreover, the “Mortality Rating Southern Armyworm” value with Southern Armyworm (100 ppm) is on record as 9 (100%). For the same molecule, the “Mortality Rating Southern Armyworm” value in the series with Southern Armyworm (1000 ppm) is recorded as 9 (100%).
